Test results reported in ChEMBL document CHEMBL3621181, “Prokineticin Receptor Modulators May Potentially Treat Psychiatric and Neurological Disorders” (ACS Med Chem Lett, 2015).

Molecular target: Prokineticin receptor 1 (Homo sapiens, UniProt Q8TCW9)
Assay: Antagonist activity at human PKR1 expressed in rat RBL2H3 cells assessed as inhibition of PK1-stimulated intracellular calcium release incubated for 10 mins prior to PK1 stimulation by FLIPR assay
Type: functional, cell-based, RBL-2H3

Chain of Prokineticin receptor 1 (Q8TCW9 whole entry): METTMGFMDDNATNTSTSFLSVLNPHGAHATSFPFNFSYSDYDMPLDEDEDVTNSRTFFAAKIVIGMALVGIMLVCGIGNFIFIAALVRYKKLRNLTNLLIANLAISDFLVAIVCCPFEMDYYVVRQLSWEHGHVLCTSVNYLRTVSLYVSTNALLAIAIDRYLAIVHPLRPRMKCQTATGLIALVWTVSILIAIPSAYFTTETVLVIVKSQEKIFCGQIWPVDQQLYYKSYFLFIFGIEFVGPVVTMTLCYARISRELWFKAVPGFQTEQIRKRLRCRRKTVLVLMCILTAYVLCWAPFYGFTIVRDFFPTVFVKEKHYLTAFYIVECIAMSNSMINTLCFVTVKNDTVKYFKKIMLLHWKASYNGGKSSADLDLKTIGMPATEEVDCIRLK

Row | IC50 [µM] | Structure (SMILES)
1 | 0.32 | CC(C)n1c(C2CCCN(C(=O)c3ccnc(N(C)C)c3)C2)nc2ccccc21 (configuration not stated)
2 | > 9 | COC1(c2ncc(Cl)cc2C)CCCN(C(=O)c2cn(C)nc2N)C1 (configuration not stated)
